Laboratory results taken from PMC4595834, “Comparison of carbon-sulfur and carbon-amine bond in therapeutic drug: 4β-S-aromatic heterocyclic podophyllum derivatives display antitumor activity” (Scientific Reports, 2015).

Assays:
BGC-823 cells = assay: MTT cytotoxicity assay, BGC-823; format: cell-based, human; details: for IC50: Homo sapiens, BGC-823, MTT, drug exposure 48 h, mean ± SD (n = 3), read-out: Cytotoxic activity (IC50) BGC-823
Description: (§1) Cytotoxicity of the podophyllum derivatives were determined by reading the absorbance at 492 nm on a multiplate reader (Thermo Fisher Scientific, Multiskan MK3). Cell cycle analysis and apoptosis analysis were analyzed by flow cytometry (Accuri C6, BD). Immunofluorescence images were recorded using laser scanning microscope (Perkin-Elmer & Olympus, UltraView VoX & Ix81). The gel for the decatenation of kDNA by Topoisomerase II study was photographed with UV illumination, Tanon 1600 (Tanon Science & Technology Co., Ltd., Shanghai). The nitrocellulose blotting membrane for western blot analysis was visualized using X-ray film processor and X-ray film, Fujifilm SUPER RX-N-C.
(§2) Cytotoxicity assay was performed on human lung adenocarcinoma epithelial cell line (A549), henrietta lacks strain of cancer cells (HeLa), human gastric carcinoma cell line (BGC 823), and normal human hepatocyte cell line (HL-7702). Cells (3500–13,000) in a 100 μL culture medium per well were seeded into 96-well microtest plates (Falcon, CA). A549 cell lines, HeLa cell lines and HL-7702 cell lines were cultured in DMEM supplemented with 10% CS, 100 mg/L penicillin G, 100 mg/L streptomycin. BGC 823 cell lines were cultured in RPMI medium 1640 supplemented with 10% CS, 100 mg/L penicillin G, and 100 mg/L streptomycin. The cells were incubated at 37 °C, in a humidified atmosphere with 5% CO2 for 48 h. For all cell lines, the microculture tetrazolium [3-(4, 5-dimethylthiazol-2-yl)-2, 5-diphenyltetrazolium bromide, MTT; Sigma, St. Louis, MO] assay was performed to measure the cytotoxic effects. Drug stock solutions (the each drug concentration was 0.5, 1, 10, 20, 50, 100, 200, and 500 μM, respectively) were prepared in DMSO and the final solvent concentration was ≤ 2% DMSO (v/v), a concentration without effect on cell replication. Initial seeding densities varied among the cell lines to ensure a final absorbance reading in control (untreated) cultures in the range 0.6–0.8 A492 units. Drug exposure was for 2 days, and the IC50 value, the drug concentration that reduced the absorbance by 50%, was interpolated from dose-response data. Each test was performed in triplicate, and absorbance readings varied no more than 5%. Data presented as means ± standard deviation (SD). Statistical analyses were performed by the analysis of variance (ANOVA). All statistical analyses were performed using Origin version 8.0 ([…], OriginLab Corp., Northampton, MA, USA). Sigmoidal dose responses and non-linear regression analyses were undertaken to identify half-maximal concentrations for each of the drugs. To evaluate differences in IC50 concentrations, analysis of variance combined with Tukey’s multiple range test was used.

HeLa cells [1] = assay: MTT cytotoxicity assay, HeLa; format: cell-based, human; details: for IC50 fold difference vs the corresponding C-NH compound (1N or 1′N): HeLa cells; for IC50: Homo sapiens, HeLa, MTT, drug exposure 48 h, mean ± SD (n = 3), read-out: Cytotoxic activity (IC50) HeLa
Description: as §1, §2

HeLa cells [2] = assay: Flow cytometry ROS (DCFH-DA) in HeLa cells; format: cell-based, human; details: for fluorescence intensity of ROS: 10 μM
Description: (§3) For the cell cycle analysis, HeLa cells were treated with test compounds for 6, 12, 24 and 48 h at 37 °C in 6-well plates. Appropriate controls, in which cells were mock-treated by DMSO (<1%) for the same durations, were also set up. After being treated, all cells were trypsinized and collected, washed twice with PBS, added with 4 °C 70% ethanol (10 mL) and stored overnight at 4 °C. After this, cells were spun down at 1500 rpm for 5 min, washed once with PBS, and then treated with the mixture of 10 μL RNase (10 mg/mL), 50 μL propidium iodide (1 mg/mL) and 940 μL 1 × PBS, incubated at room temperature for 30 min in the dark. The stained cells were analyzed by flow cytometry. The result was analyzed with ModFit LT^TM 3.2 version software. For the apoptosis determination, after 6, 12, 24 and 48 h treatment with test compounds, HeLa cells were harvested, re-suspend in 500 μL annexin-binding buffer (10mM HEPES, 140 mM NaCl, 2.5 mM CaCl2, pH 7.4) at the cell density of about 10^6 cells/mL and stained with 5 μL annexin V and 5 μL propidium iodide for 15 min at room temperature. Changes in intracellular ROS levels were determined by measuring the oxidative conversion of cell permeable 2′,7′-dichlorofluorescein diacetate (DCFH-DA) to fluorescent di-chlorofluorescein (DCF) in flow cytometry (BD Accuri C6). Cells in 6-well culture dishes were incubated with DMEM for 6, 12, 24 and 48 h in the absence or presence of test compounds. The cells were washed with DMEM and incubated with DCFH-DA (10 μM) at 37 °C for 30 min. Then DCF fluorescence of 10,000 cells was detected by flow cytometry.

A549 cells = assay: MTT cytotoxicity assay, A549; format: cell-based, human; details: for IC50: Homo sapiens, A549, 48 h, MTT, drug exposure 48 h, mean ± SD (n = 3), read-out: Cytotoxic activity (IC50) A549
Description: as §1, §2

[3] = MTT cytotoxicity assay, normal hepatocyte HL-7702; format: cell-based; details: HL-7702 cells (normal hepatocyte cell line), normal human hepatocyte cell line, drug exposure 48 h, mean ± SD (n = 3), read-out: Cytotoxic activity (IC50) HL-7702
Description: as §1, §2

HeLa cells [4] = assay: Flow cytometry cell cycle analysis in HeLa cells; format: cell-based, human; details: for G2/M phase arrest: 0.1 μM; for percentage of G2/M phase cells: 1 μM; for percentage of G2/M phase cells / percentage of G2/M phase cells (maximum): 48 h; for percentage of G2/M phase cells (maximum): 5 μM
Description: as §3

HeLa cells [5] = assay: Western blot of apoptosis pathway proteins in HeLa cells; format: cell-based, human; details: 1 μM; for apoptotic pathways activated (BimEL, caspase-9, -8, -3, PARP): 12–48 h
Description: Cells were lysed by adding 100 μL of RIPA buffer (50 mM Tris, pH 8.0, 150 mM NaCl, 1% TX-100, 0.5% sodium deoxycholate, 0.1% SDS) with 1% Protease Inhibitor PMSF. Each sample was then vigorously vortexed twice for 15 seconds, with a 30-minute incubation on ice following each agitation. The cellular debris was pelleted (12,000 rpm, 10 min), and then 100 μL of the protein suspension was transferred to fresh 0.5 mL tubes. The protein levels were quantified using a standard BCA (Thermo Scientific), after which the samples were diluted with deionized water to achieve equal protein concentrations for all samples. Prior to analyzing the samples, 5 × Loading buffer (350 mM Tris, pH 6.8, 12% SDS, 0.012% bromophenol blue, 47% glycerol) with 5% β-mercaptoethanol was added to each sample to achieve a final 1 × concentration, after which the samples were incubated at 95 °C for 10 minutes to denature the protein samples. 20–30 μg of protein was added to and run on a 15-well 4–20% Tris-HCl gel. The gel was equilibrated buffer (39 mM glycine, 48 mM, 0.037 g/L SDS, 200 mL/L methanol) for 5 minutes, then the protein were transferred to a PVDF membrane, which was incubated with 5% fetal bovine serum in TBST (20 mM Tris-HCl, pH 8.0, 150 mM, 0.5 mL/L Tween-20) for 1 h to block non-specific binding, and then probed for the primary antibody at a 1:1000 dilution with a blocking agent in TBST for 1 h at room temperature. The blot was washed with TBST, and then probed with a secondary antibody in TBST for 1 hour at room temperature. The blot was washed with TBST, and then The ECL detection kit (Millipore) was added to catalyze oxidation of luminol to emit chemiluminescence, and the membrane was visualized using X-ray film processor and X-ray film (Fujifilm SUPER RX-N-C).

Topoisomerase II = target: T1, Topoisomerase II (Homo sapiens, UniProt P11388); assay: kDNA decatenation assay (Topoisomerase II inhibition); format: biochemical; details: 100 μM
T1 construct: purchased TopoGEN Inc., USA 2000H
Description: Kinetoplast DNA (kDNA) is a catenated network of mitochondrial DNA seen in trypanosomes.
Topoisomerase II activity was determined using kit (TopoGEN Inc., USA, Cat no. 2000H). […] Next, 4 U of topoisomerase II was added and the reaction was allowed to proceed for 60 min at 37 °C. The reaction was stopped by the addition of 1/10 volume of 1 mg/mL proteinase K and incubated for 15 min at 37 °C. The reaction was quenched via the addition of loading buffer (350 mM Tris, pH 6.8, 12% SDS, 0.012% bromophenol blue, 47% glycerol) and was then analyzed by electrophoresis on a 1% agarose gel in TBE buffer (89 mM Tris, 89 mM borate, and 2 mM Na-EDTA, pH 8.3) for 0.5 h at 140 V. The gel was visualized under UV illumination and photographed on an Alpha Imager.

[6] = before the 48 h change (24 h induction)

T1 sequence (P11388 whole entry): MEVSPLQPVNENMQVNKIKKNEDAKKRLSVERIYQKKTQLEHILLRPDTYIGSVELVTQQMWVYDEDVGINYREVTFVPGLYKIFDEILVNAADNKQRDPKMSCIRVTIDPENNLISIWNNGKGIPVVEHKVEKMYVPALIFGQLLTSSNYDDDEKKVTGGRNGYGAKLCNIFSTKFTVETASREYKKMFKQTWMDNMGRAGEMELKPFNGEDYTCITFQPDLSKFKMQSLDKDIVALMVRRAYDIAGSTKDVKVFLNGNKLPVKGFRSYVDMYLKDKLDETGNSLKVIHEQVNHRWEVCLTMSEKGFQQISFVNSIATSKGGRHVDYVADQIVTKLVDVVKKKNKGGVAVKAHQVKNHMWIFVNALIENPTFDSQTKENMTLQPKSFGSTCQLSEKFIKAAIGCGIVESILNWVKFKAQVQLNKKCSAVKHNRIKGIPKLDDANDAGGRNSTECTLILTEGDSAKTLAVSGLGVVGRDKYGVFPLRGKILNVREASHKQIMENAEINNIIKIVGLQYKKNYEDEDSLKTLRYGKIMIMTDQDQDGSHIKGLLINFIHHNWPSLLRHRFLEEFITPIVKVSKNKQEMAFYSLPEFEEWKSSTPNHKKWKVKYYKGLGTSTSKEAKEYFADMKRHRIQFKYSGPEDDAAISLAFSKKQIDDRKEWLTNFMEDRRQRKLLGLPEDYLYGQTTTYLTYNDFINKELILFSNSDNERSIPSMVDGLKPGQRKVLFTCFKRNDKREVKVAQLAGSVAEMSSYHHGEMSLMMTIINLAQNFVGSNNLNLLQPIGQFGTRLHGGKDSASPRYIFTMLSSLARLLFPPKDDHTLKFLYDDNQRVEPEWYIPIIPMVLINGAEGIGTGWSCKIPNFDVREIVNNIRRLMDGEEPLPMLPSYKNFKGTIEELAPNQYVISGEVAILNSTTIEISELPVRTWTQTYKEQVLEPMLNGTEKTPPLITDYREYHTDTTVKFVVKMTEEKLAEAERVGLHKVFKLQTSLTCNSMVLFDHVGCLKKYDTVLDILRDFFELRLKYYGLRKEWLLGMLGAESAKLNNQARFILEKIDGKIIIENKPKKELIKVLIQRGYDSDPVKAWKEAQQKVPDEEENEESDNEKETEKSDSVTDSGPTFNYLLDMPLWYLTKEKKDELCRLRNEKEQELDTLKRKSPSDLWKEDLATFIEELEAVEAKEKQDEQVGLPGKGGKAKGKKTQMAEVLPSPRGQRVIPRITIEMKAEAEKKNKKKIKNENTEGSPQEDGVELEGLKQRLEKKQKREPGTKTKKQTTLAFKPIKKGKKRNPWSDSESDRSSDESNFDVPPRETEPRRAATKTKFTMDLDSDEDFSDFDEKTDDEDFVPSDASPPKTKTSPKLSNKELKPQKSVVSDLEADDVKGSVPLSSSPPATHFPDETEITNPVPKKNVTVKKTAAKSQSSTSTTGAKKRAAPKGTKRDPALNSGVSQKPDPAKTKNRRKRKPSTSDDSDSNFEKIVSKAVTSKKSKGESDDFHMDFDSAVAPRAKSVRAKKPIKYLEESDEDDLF

COc1cc([C@@H]2c3cc4c(cc3[C@@H](Sc3nc[nH]n3)[C@H]3COC(=O)[C@H]23)OCO4)cc(OC)c1OC [Compound 1S, 4β-S-(1,3,4-trizole-2)-4-deoxy-podophyllotoxin]
IC50 fold difference vs Compound 1N (BGC-823 cells; BGC-823 cells): ~3 times | IC50 (BGC-823 cells): 0.34 ± 0.02 µM | IC50 fold difference vs the corresponding C-NH compound (1N or 1′N) (HeLa cells [1]): about 29 times | IC50 (HeLa cells [1]): 0.17 ± 0.02 µM | fluorescence intensity of ROS (HeLa cells [2]; [6]): 10^5–10^6 | amount of ROS (fluorescence intensity × count of cells) improved compared with Compound 1N (HeLa cells [2]; 48 h): 4.8 times | IC50 fold difference vs Compound 1N (A549 cells; A549 cells): ~6 times | IC50 at 48 h [3]: 56.1 ± 3.54 µM | G2/M phase arrest (HeLa cells [4]): did not induce the G2/M phase arrest | percentage of G2/M phase cells (HeLa cells [4]): about 80% | percentage of G2/M phase cells (maximum) (HeLa cells [4]): 80-90% | apoptotic pathways activated (BimEL, caspase-9, -8, -3, PARP) (HeLa cells [5]): activated the mitochondrial and the death receptor apoptotic pathways

COc1cc([C@@H]2c3cc4c(cc3[C@@H](Nc3nc[nH]n3)[C@H]3COC(=O)[C@H]23)OCO4)cc(OC)c1OC [Compound 1N, 4β-NH-(1,2,4-trizole-3)-4-deoxy-podophyllotoxin]
IC50 (BGC-823 cells): 1.25 ± 0.13 µM | IC50 (HeLa cells [1]): 3.85 ± 0.21 µM | fluorescence intensity of ROS (HeLa cells [2]; 48 h induction, half (1S) or most (1N) of the cells): 10^4–10^5 | fluorescence intensity of ROS (HeLa cells [2]; [6]): 10^5–10^6 | IC50 (A549 cells): 5.33 ± 0.52 µM | IC50 at 48 h [3]: 21.2 ± 2.16 µM | G2/M phase arrest (HeLa cells [4]): did not induce the G2/M phase arrest | percentage of G2/M phase cells (HeLa cells [4]): about 80% | percentage of G2/M phase cells (maximum) (HeLa cells [4]): 80-90% | apoptotic pathways activated (BimEL, caspase-9, -8, -3, PARP) (HeLa cells [5]): only stimulated the mitochondrial apoptotic pathway

COc1cc([C@@H]2c3cc4c(cc3[C@@H](Sc3ccccn3)[C@H]3COC(=O)[C@H]23)OCO4)cc(OC)c1O [3′S, 4β-S-(pyridine-2)-4-deoxy-4′-demethyl-podophyllotoxin]
IC50 (BGC-823 cells): 10.3 ± 0.34 µM | IC50 (HeLa cells [1]): 5.6 ± 0.39 µM | inhibition of catalytic activity of Topo II (kDNA decatenation) (Topoisomerase II): nearly inhibited | IC50 (A549 cells): 3.85 ± 0.35 µM

COc1cc([C@@H]2c3cc4c(cc3[C@@H](Sc3nc[nH]n3)[C@H]3COC(=O)[C@H]23)OCO4)cc(OC)c1O [Compound 1′S, 4β-S-(1,3,4-trizole-2)-4-deoxy-4′-demethylepipodophyllotoxin]
IC50 (BGC-823 cells): 8.38 ± 0.53 µM | IC50 fold difference vs the corresponding C-NH compound (1N or 1′N) (HeLa cells [1]): 16 times | IC50 (HeLa cells [1]): 0.32 ± 0.03 µM | inhibition of catalytic activity of Topo II (kDNA decatenation) (Topoisomerase II): nearly inhibited | IC50 (A549 cells): 3.85 ± 0.38 µM | IC50 at 48 h [3]: 43.2 ± 1.66 µM | activation of ATM, ATR, caspase-8, 9 and 3 (HeLa cells [5]; 0-48 h): activation of all these proteins
